The results in this text go back to US9969742B2, “Imidazotriazinone compounds” (Ironwood Pharmaceuticals, Inc., priority 2012, dated 2018).

Read-outs that look alike come from different tables or passages of the source. Some results are limits rather than exact numbers.

Holding throughout (assay type): biochemical
For test [1], the target named is T1, PDE9A2 (Homo sapiens, UniProt O76083).
T1 construct: purchased Reaction Biology Corporation, Malvern, Pa
In words: Phosphodiesterase enzyme screening assay, PDE9A2. In outline: (§1)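 Enzyme activity is measured as conversion of fluorescent cGMP (4.0 μM) to 5′-GMP after 1 h at R.T. in pH 7.5 HEPES/MgCl2/DTT buffer. Product is separated from substrate by microfluidic mobility shift, and inhibition is derived by comparison with control wells.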

Test [2] deals with T2, PDE1A (Homo sapiens, UniProt P54750).
T2 construct: purchased Reaction Biology Corporation, Malvern, Pa
The test can be described thus: Phosphodiesterase enzyme screening assay, PDE1A. The conditions noted are these: value greater than 1 indicates greater selectivity for PDE9A2. In outline:
as §1

Test [3] has as its target T3, PDE1B (Homo sapiens, UniProt Q01064).
T3 construct: purchased Reaction Biology Corporation, Malvern, Pa
The test can be described thus: Phosphodiesterase enzyme screening assay, PDE1B. The conditions noted are these: value greater than 1 indicates greater selectivity for PDE9A2. A digest of the protocol: as §1

Where [4] appears, read: ratio of IC50 values, PDE1A versus PDE9A2.
Setting [5] is: ratio of IC50 values, PDE1B versus PDE9A2.
Setting [6] is: IC50 band, 4.0 μM cGMP substrate, 1 hour at R.T.
Where [7] appears, read: ratio of IC50 values PDE1A vs PDE9A2.
[8] abbreviates: ratio of IC50 values PDE1B vs PDE9A2.

T3 sequence (Q01064 whole entry): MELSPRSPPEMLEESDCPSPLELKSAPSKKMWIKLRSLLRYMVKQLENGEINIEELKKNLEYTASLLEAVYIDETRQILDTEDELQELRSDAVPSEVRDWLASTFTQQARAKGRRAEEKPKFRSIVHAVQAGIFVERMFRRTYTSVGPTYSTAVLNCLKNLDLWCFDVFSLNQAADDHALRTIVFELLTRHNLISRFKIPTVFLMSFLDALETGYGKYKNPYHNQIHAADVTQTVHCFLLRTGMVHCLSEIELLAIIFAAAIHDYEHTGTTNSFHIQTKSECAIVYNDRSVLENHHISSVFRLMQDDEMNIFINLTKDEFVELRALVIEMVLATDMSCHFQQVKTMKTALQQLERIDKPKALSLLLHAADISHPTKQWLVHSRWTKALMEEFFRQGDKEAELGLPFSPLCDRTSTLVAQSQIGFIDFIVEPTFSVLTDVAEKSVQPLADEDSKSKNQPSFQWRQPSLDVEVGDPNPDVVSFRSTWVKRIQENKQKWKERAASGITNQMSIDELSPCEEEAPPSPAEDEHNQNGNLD
T1 sequence (O76083 1-533 isoform O76083-2): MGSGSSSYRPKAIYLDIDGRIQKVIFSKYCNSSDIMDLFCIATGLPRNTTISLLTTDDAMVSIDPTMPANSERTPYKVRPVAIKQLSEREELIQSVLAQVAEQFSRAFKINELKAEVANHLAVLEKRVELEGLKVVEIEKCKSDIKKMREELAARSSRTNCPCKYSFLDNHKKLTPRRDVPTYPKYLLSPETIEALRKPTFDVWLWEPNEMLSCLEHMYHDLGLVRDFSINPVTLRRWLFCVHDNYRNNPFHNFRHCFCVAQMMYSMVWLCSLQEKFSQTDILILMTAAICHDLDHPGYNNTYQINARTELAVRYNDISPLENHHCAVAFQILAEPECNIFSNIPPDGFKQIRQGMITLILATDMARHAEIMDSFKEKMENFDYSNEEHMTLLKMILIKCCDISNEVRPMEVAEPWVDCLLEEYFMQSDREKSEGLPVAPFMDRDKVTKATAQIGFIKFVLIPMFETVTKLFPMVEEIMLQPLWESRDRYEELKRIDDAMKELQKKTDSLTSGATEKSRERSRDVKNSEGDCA
T2 sequence (P54750 whole entry): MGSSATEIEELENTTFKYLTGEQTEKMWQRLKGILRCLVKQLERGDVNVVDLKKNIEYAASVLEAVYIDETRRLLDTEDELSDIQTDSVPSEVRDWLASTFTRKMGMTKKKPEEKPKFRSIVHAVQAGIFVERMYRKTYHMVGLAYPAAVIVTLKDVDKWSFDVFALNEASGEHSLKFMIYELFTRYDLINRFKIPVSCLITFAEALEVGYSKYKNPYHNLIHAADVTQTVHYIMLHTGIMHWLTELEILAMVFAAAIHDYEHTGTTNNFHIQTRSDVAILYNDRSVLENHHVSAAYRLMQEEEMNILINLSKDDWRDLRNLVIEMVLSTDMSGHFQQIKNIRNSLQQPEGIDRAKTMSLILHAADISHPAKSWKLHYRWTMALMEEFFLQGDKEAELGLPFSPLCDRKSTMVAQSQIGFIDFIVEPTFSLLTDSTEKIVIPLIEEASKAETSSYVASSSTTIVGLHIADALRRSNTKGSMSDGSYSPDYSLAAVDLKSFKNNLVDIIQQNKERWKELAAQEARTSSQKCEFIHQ

For `CC1CN(Cc2ncccn2)CC1c1nn2c(-c3ccccc3F)ncc2c(=O)[nH]1` (single isomer, unassigned; (+)) [(+)-7-(2-fluorophenyl)-2-((3,4-trans)-4-methyl-1-(pyrimidin-2-ylmethyl)pyrrolidin-3-yl)imidazo[5,1-f][1,2,4]triazin-4(3H)-one], the IC50 (commonly the concentration needed to halve the response being measured) in test [1] (4.0 μM cGMP substrate, 1 hour at R.T., read-out: Band (PDE9A2 IC50)) was under 1000 nM. The “PDE1A selectivity (versus PDE9A2)” value in test [2] (ratio of IC50 values PDE1A / PDE9A2) came to 19. Also, in test [3] (ratio of IC50 values PDE1B / PDE9A2), the “PDE1B selectivity (versus PDE9A2)” value is 39.

On to `CC1CN(Cc2ccccn2)CC1c1nn2c(-c3cccc(F)c3)ncc2c(=O)[nH]1` (single isomer, unassigned; (+)) [(+)-7-(3-fluorophenyl)-2-((3,4-trans)-4-methyl-1-(pyridin-2-ylmethyl)pyrrolidin-3-yl)imidazo[5,1-f][1,2,4]triazin-4(3H)-one], for which the IC50 in test [1] (read-out: Band (PDE9A2 IC50)) is under 1000 nM. Besides, the “PDE1A selectivity (versus PDE9A2)” value in test [2] (setting [4]) is 190. Further, in test [3] (setting [5]), the “PDE1B selectivity (versus PDE9A2)” value turned out to be 236.

For `CC1CN(Cc2cccnc2)CC1c1nn2c(-c3cccc(F)c3)ncc2c(=O)[nH]1` (single isomer, unassigned; (+)) [(+)-7-(3-fluorophenyl)-2-((3,4-trans)-4-methyl-1-(pyridin-3-ylmethyl)pyrrolidin-3-yl)imidazo[5,1-f][1,2,4]triazin-4(3H)-one], the IC50 in test [1] (read-out: Band (PDE9A2 IC50)) was under 1000 nM. In addition, the “PDE1A selectivity (versus PDE9A2)” value in test [2] (setting [4]) is reported as 15. The “PDE1B selectivity (versus PDE9A2)” value in test [3] (setting [5]) was found to be 37.

`CC1CN(Cc2cn3ccccc3n2)CC1c1nn2c(C3CCC(F)(F)CC3)ncc2c(=O)[nH]1` (single isomer, unassigned; (+)) [(+)-7-(4,4-difluorocyclohexyl)-2-((3,4-trans)-1-(imidazo[1,2-a]pyridin-2-ylmethyl)-4-methylpyrrolidin-3-yl)imidazo[5,1-f][1,2,4]triazin-4(3H)-one]: in test [1] (setting [6]), the IC50 is under 1000 nM. Besides, the “PDE1A selectivity (versus PDE9A2)” value in test [2] (setting [7]) amounted to 405. In addition, the “PDE1B selectivity (versus PDE9A2)” value in test [3] (setting [8]) came to 1659.

For `CC1CN(Cc2cnccn2)CC1c1nn2c(C3CCC(F)(F)CC3)ncc2c(=O)[nH]1` (single isomer, unassigned; (+)) [(+)-7-(4,4-difluorocyclohexyl)-2-((3,4-trans)-4-methyl-1-(pyrazin-2-ylmethyl)pyrrolidin-3-yl)imidazo[5,1-f][1,2,4]triazin-4(3H)-one], in test [1] (setting [6]), the IC50 was under 1000 nM. For the same compound, in test [2] (setting [7]), the “PDE1A selectivity (versus PDE9A2)” value is given as 233. The “PDE1B selectivity (versus PDE9A2)” value in test [3] (setting [8]) is 575.

The compound `CC1CN(Cc2ccccn2)CC1c1nn2c(C3CCC(F)(F)CC3)ncc2c(=O)[nH]1` (single isomer, unassigned; (+)) [(+)-7-(4,4-difluorocyclohexyl)-2-((3,4-trans)-4-methyl-1-(pyridin-2-ylmethyl)pyrrolidin-3-yl)imidazo[5,1-f][1,2,4]triazin-4(3H)-one] returned an IC50 in test [1] (setting [6]) of under 1000 nM. In addition, the “PDE1A selectivity (versus PDE9A2)” value in test [2] (setting [7]) amounted to 167. For the same compound, the “PDE1B selectivity (versus PDE9A2)” value in test [3] (setting [8]) was determined as 362.

In test [1] (setting [6]), `CC1CN(Cc2cccnc2)CC1c1nn2c(C3CCC(F)(F)CC3)ncc2c(=O)[nH]1` (single isomer, unassigned; (+)) [(+)-7-(4,4-difluorocyclohexyl)-2-((3,4-trans)-4-methyl-1-(pyridin-3-ylmethyl)pyrrolidin-3-yl)imidazo[5,1-f][1,2,4]triazin-4(3H)-one] yielded an IC50 of under 1000 nM. In addition, the “PDE1A selectivity (versus PDE9A2)” value in test [2] (setting [7]) was 181. In addition, the “PDE1B selectivity (versus PDE9A2)” value in test [3] (setting [8]) is listed as 409.

As to `Cc1cc(F)c(F)cc1-c1ncc2c(=O)[nH]c(C3CN(Cc4ccc(F)cc4)CC3C)nn12` (single isomer, unassigned; (+)) [(+)-7-(4,5-difluoro-2-methylphenyl)-2-((3,4-trans)-1-(4-fluorobenzyl)-4-methylpyrrolidin-3-yl)imidazo[5,1-f][1,2,4]triazin-4(3H)-one], the IC50 in test [1] (read-out: Band (PDE9A2 IC50)) was under 1000 nM. Further, in test [2] (setting [4]), the “PDE1A selectivity (versus PDE9A2)” value stood at 232. The “PDE1B selectivity (versus PDE9A2)” value in test [3] (setting [5]) came out at 179.

Consider `Cc1cc(F)c(F)cc1-c1ncc2c(=O)[nH]c(C3CN(Cc4cn5ccccc5n4)CC3C)nn12` (single isomer, unassigned; (+)) [(+)-7-(4,5-difluoro-2-methylphenyl)-2-((3,4-trans)-1-(imidazo[1,2-a]pyridin-2-ylmethyl)-4-methylpyrrolidin-3-yl)imidazo[5,1-f][1,2,4]triazin-4(3H)-one], for which the IC50 in test [1] (read-out: Band (PDE9A2 IC50)) was under 1000 nM. In addition, the “PDE1A selectivity (versus PDE9A2)” value in test [2] (setting [4]) is 2510. Moreover, the “PDE1B selectivity (versus PDE9A2)” value in test [3] (setting [5]) was determined as 9350.

As for `Cc1cc(F)c(F)cc1-c1ncc2c(=O)[nH]c(C3CN(Cc4ncccn4)CC3C)nn12` (single isomer, unassigned; (+)) [(+)-7-(4,5-difluoro-2-methylphenyl)-2-((3,4-trans)-4-methyl-1-(pyrimidin-2-ylmethyl)pyrrolidin-3-yl)imidazo[5,1-f][1,2,4]triazin-4(3H)-one], in test [1] (read-out: Band (PDE9A2 IC50)), the IC50 is under 1000 nM. Moreover, in test [2] (setting [4]), the “PDE1A selectivity (versus PDE9A2)” value is given as 44. Moreover, the “PDE1B selectivity (versus PDE9A2)” value in test [3] (setting [5]) was found to be 85.

Turning to `Cc1cc(F)ccc1-c1ncc2c(=O)[nH]c(C3CN(Cc4ccc(F)cc4)CC3C)nn12` (single isomer, unassigned; (+)) [(+)-7-(4-fluoro-2-methylphenyl)-2-((3,4-trans)-1-(4-fluorobenzyl)-4-methylpyrrolidin-3-yl)imidazo[5,1-f][1,2,4]triazin-4(3H)-one], the IC50 in test [1] (setting [6]) is under 1000 nM. Further, the “PDE1A selectivity (versus PDE9A2)” value in test [2] (setting [7]) was determined as 345. Also, the “PDE1B selectivity (versus PDE9A2)” value in test [3] (setting [8]) is given as 493.

Consider `Cc1cc(F)ccc1-c1ncc2c(=O)[nH]c(C3CN(Cc4cn5ccccc5n4)CC3C)nn12` (single isomer, unassigned; (+)) [(+)-7-(4-fluoro-2-methylphenyl)-2-((3,4-trans)-1-(imidazo[1,2-a]pyridin-2-ylmethyl)-4-methylpyrrolidin-3-yl)imidazo[5,1-f][1,2,4]triazin-4(3H)-one], for which, in test [1] (setting [6]), the IC50 is under 1000 nM. The “PDE1A selectivity (versus PDE9A2)” value in test [2] (setting [7]) turned out to be 339. Besides, the “PDE1B selectivity (versus PDE9A2)” value in test [3] (setting [8]) was 792.

With `Cc1cc(F)ccc1-c1ncc2c(=O)[nH]c(C3CN(Cc4cnccn4)CC3C)nn12` (single isomer, unassigned; (+)) [(+)-7-(4-fluoro-2-methylphenyl)-2-((3,4-trans)-4-methyl-1-(pyrazin-2-ylmethyl)pyrrolidin-3-yl)imidazo[5,1-f][1,2,4]triazin-4(3H)-one], the IC50 in test [1] (setting [6]) was under 1000 nM. In test [2] (setting [7]), the “PDE1A selectivity (versus PDE9A2)” value is 342. Moreover, the “PDE1B selectivity (versus PDE9A2)” value in test [3] (setting [8]) is on record as 393.

Take `Cc1cc(F)ccc1-c1ncc2c(=O)[nH]c(C3CN(Cc4ccccn4)CC3C)nn12` (single isomer, unassigned; (+)) [(+)-7-(4-fluoro-2-methylphenyl)-2-((3,4-trans)-4-methyl-1-(pyridin-2-ylmethyl)pyrrolidin-3-yl)imidazo[5,1-f][1,2,4]triazin-4(3H)-one]: in test [1] (setting [6]), the IC50 is under 1000 nM. For the same compound, in test [2] (setting [7]), the “PDE1A selectivity (versus PDE9A2)” value is 5780. Also, the “PDE1B selectivity (versus PDE9A2)” value in test [3] (setting [8]) is 374.

`Cc1cc(F)ccc1-c1ncc2c(=O)[nH]c(C3CN(Cc4cccnc4)CC3C)nn12` (single isomer, unassigned; (+)) [(+)-7-(4-fluoro-2-methylphenyl)-2-((3,4-trans)-4-methyl-1-(pyridin-3-ylmethyl)pyrrolidin-3-yl)imidazo[5,1-f][1,2,4]triazin-4(3H)-one]: the IC50 in test [1] (setting [6]) was under 1000 nM. For the same compound, in test [2] (setting [7]), the “PDE1A selectivity (versus PDE9A2)” value is given as 452. In addition, the “PDE1B selectivity (versus PDE9A2)” value in test [3] (setting [8]) turned out to be 492.

With `CC1CN(Cc2cn3ccccc3n2)CC1c1nn2c(-c3ccc(F)cc3)ncc2c(=O)[nH]1` (single isomer, unassigned; (+)) [(+)-7-(4-fluorophenyl)-2-((3,4-trans)-1-(imidazo[1,2-a]pyridin-2-ylmethyl)-4-methylpyrrolidin-3-yl)imidazo[5,1-f][1,2,4]triazin-4(3H)-one], the IC50 in test [1] (read-out: Band (PDE9A2 IC50)) was under 1000 nM. Also, the “PDE1A selectivity (versus PDE9A2)” value in test [2] (setting [4]) worked out at 120. Further, the “PDE1B selectivity (versus PDE9A2)” value in test [3] (setting [5]) is 209.

Turning to `CC1CN(Cc2cnccn2)CC1c1nn2c(-c3ccc(F)cc3)ncc2c(=O)[nH]1` (single isomer, unassigned; (+)) [(+)-7-(4-fluorophenyl)-2-((3,4-trans)-4-methyl-1-(pyrazin-2-ylmethyl)pyrrolidin-3-yl)imidazo[5,1-f][1,2,4]triazin-4(3H)-one], the IC50 in test [1] (read-out: Band (PDE9A2 IC50)) was under 1000 nM. The “PDE1A selectivity (versus PDE9A2)” value in test [2] (setting [4]) was 9. The “PDE1B selectivity (versus PDE9A2)” value in test [3] (setting [5]) is 8.

As to `Cc1ccc(F)cc1-c1ncc2c(=O)[nH]c(C3CN(Cc4ccc(F)cc4)CC3C)nn12` (single isomer, unassigned; (+)) [(+)-7-(5-fluoro-2-methylphenyl)-2-((3,4-trans)-1-(4-fluorobenzyl)-4-methylpyrrolidin-3-yl)imidazo[5,1-f][1,2,4]triazin-4(3H)-one], the IC50 in test [1] (setting [6]) was under 1000 nM. Besides, the “PDE1A selectivity (versus PDE9A2)” value in test [2] (setting [7]) is reported as 1738. In test [3] (setting [8]), the “PDE1B selectivity (versus PDE9A2)” value came to 393.

Compound `Cc1ccc(F)cc1-c1ncc2c(=O)[nH]c(C3CN(Cc4cn5ccccc5n4)CC3C)nn12` (single isomer, unassigned; (+)) [(+)-7-(5-fluoro-2-methylphenyl)-2-((3,4-trans)-1-(imidazo[1,2-a]pyridin-2-ylmethyl)-4-methylpyrrolidin-3-yl)imidazo[5,1-f][1,2,4]triazin-4(3H)-one] registered an IC50 in test [1] (setting [6]) of under 1000 nM. Also, in test [2] (setting [7]), the “PDE1A selectivity (versus PDE9A2)” value came to 1437. Further, in test [3] (setting [8]), the “PDE1B selectivity (versus PDE9A2)” value was found to be 1427.
